Results: publication PMC5457276, “Influence of Amphibian Antimicrobial Peptides and Short Lipopeptides on Bacterial Biofilms Formed on Contact Lenses” (Materials, 2016)
Like-named read-outs stand apart in the source and are kept apart here.

Experiments:
HaCaT cells = conditions: cited from earlier work
Excerpt: Our data reveal that AMPs might be promising antibacterial additives to CL solutions. However there are certain limitations and issues which need to be considered. The long-time stability of compounds in a water solution needs to be examined, but first of all the evaluation of toxicity towards human eye cells needs to be carried out. In the previous study tested amphibian peptides turned out to be safe towards HaCaT cells at their microbiologically-active concentrations. […] Considering the potenti ...

[1] = test system: Streptococcus pyogenes PCM 465; type: cell-based; conditions: S. pyogenes; same MIC in μM (in brackets); broth microdilution, MHB II, overnight at 37 °C, triplicate
Description: (§1) All selected strains were obtained from the Polish Collection of Microorganisms (Polish Academy of Science, Wroclaw, Poland). Four Gram-positive and three Gram-negative strains linked with CL-related infections lenses were tested (Table 5). The microorganisms were cultured in a Mueller Hinton Broth II (MHB, Biocorp, Warsaw, Poland) overnight, at 37 °C.
(§2) Peptide susceptibility tests on the reference bacterial strains were performed with the following procedures recommended by the Clinical and Laboratory Standard Institute (CLSI). The activity of five peptides was tested on the Mueller Hinton Broth II (Biocorp, Warsaw, Poland) using broth microdilution method on polystyrene 96-well plates (Kartell, Noviglio, Italy). […] The plates were incubated overnight at 37 °C. MIC was assumed as the lowest concentration at which bacterial growth was no longer visible. All experiments were performed in triplicate.

[2] = test system: Streptococcus pneumoniae ATCC 49619; type: cell-based; conditions: S. pneumoniae; same MIC in μM (in brackets); broth microdilution, MHB II, overnight at 37 °C, triplicate
Description: as §1, §2

[3] = test system: Staphylococcus aureus ATCC 25923; type: cell-based; conditions: S. aureus; same MIC in μM (in brackets); broth microdilution, MHB II, overnight at 37 °C, triplicate
Description: as §1, §2

[4] = test system: Pseudomonas aeruginosa ATCC 9027; type: cell-based; conditions: P. aeruginosa; same MIC in μM (in brackets); broth microdilution, MHB II, overnight at 37 °C, triplicate
Description: as §1, §2

[5] = test system: Escherichia coli ATCC 25922; type: cell-based; conditions: E. coli; same MIC in μM (in brackets); broth microdilution, MHB II, overnight at 37 °C, triplicate
Description: as §1, §2

[6] = test system: Staphylococcus epidermidis ATCC 14990; type: cell-based; conditions: S. epidermidis; same MIC in μM (in brackets); broth microdilution, MHB II, overnight at 37 °C, triplicate
Description: as §1, §2

[7] = test system: Streptococcus pneumoniae ATCC 49619 biofilm on contact lenses; assay: Biofilm assay on contact lenses (MBEC, resazurin); type: cell-based; conditions: S. pneumoniae, triplicate
Description: as §1
(§3) The CL and CL solutions used are commercially available. One-day CL (1-Day Acuvue Moist) containing Etafilcon A were obtained from Johnson and Johnson Vision Care (Jacksonsville, FL, USA). Four popular CL solutions were also tested (Table 6).
(§4) Biofilms of strains related with ocular infections were cultured on CL placed in polystyrene 24-well plates (Orange Scientific, Braine-l’Alleud, Belgium). Biomaterials were incubated at 37 °C in bacterial suspension in the Mueller Hinton Broth II (Biocorp, Warsaw, Poland) at initial inoculums of ca. 5 × 10^5 CFU/mL. After 24 h of incubation all of the CL were rinsed three times with a sterile phosphate buffer (AppliChem, Darmstadt, Germany). The lenses were then transferred into new wells with fresh MHB II. One-day biofilms were exposed to a pre-determined range of peptides concentration. […] Anti-biofilm activity of selected peptides was visualized using a cell-viability reagent, Resazurin (Sigma Aldrich, St. Louis, MO, USA). Upon contact with living cells the dye is metabolized by bacterial dehydrogenases resulting in the reduction of the blue resazurin to a pink resorufin. Positive controls contained CL immersed in bacterial suspensions without antimicrobials, while CL in a sterile culture medium served as negative controls. The minimum biofilm eradication concentration (MBEC) was read after a one-hour incubation with Resazurin (final concentration per sample = 0.005%) MBEC was determined as the lowest concentration at which the reduction of resazurin was lower or equal (10% ± 0.5%) as compared to positive (100%) and negative (0%) controls. All experiments were performed in triplicate.

[8] = test system: Staphylococcus aureus ATCC 25923 biofilm on contact lenses; assay: Biofilm assay on contact lenses (MBEC, resazurin); type: cell-based; conditions: S. aureus, triplicate
Description: as §1, §3, §4

[9] = test system: Streptococcus pyogenes PCM 465 biofilm on contact lenses; assay: Biofilm assay on contact lenses (MBEC, resazurin); type: cell-based; conditions: S. pyogenes, triplicate
Description: as §1, §3, §4

[10] = test system: Staphylococcus epidermidis ATCC 14990 biofilm on contact lenses; assay: Biofilm assay on contact lenses (MBEC, resazurin); type: cell-based; conditions: S. epidermidis, triplicate
Description: as §1, §3, §4

[11] = test system: biofilms formed by Gram-positive bacteria on contact lenses; assay: Biofilm assay on contact lenses (MBEC), summary over Gram-positive strains; type: cell-based
Description: as §1, §3, §4

[12] = test system: Pseudomonas aeruginosa ATCC 9027 biofilm on contact lenses; type: cell-based; conditions: P. aeruginosa, triplicate
Description: as §1, §3, §4

[13] = test system: Escherichia coli ATCC 25922 biofilm on contact lenses; type: cell-based; conditions: for Minimum biofilm eradication concentration (reduction of resazurin ≤10% ± 0.5%): E. coli, triplicate
Description: as §1, §3, §4

[14] = 25 °C, one-day biofilm on contact lens (Etafilcon A), 24 h exposure in MHB II, resazurin read-out
[15] = 25 °C, same MBEC in μM (in brackets), biofilm on contact lens, 24 h exposure
[16] = 37 °C, one-day biofilm on contact lens (Etafilcon A), 24 h exposure in MHB II, resazurin read-out
[17] = 37 °C, same MBEC in μM (in brackets), biofilm on contact lens, 24 h exposure

Q: With `CCCCCCCCCCCCCCCC(=O)N[C@@H](CCCCN)C(=O)N[C@@H](CCCCN)C(N)=O` [Palm-KK-NH2] as the compound, how does the “Toxicity towards HaCaT cells / human keratinocytes (in words)” value (HaCaT cells) read?
A: The value was “high toxicity”.

Q: And the Minimum inhibitory concentration [1]?
A: The Minimum inhibitory concentration was “(21.7) μM”.

Q: And the Minimum inhibitory concentration [2]?
A: Its Minimum inhibitory concentration is “(10.8) μM”.

Q: And the Minimum inhibitory concentration [3]?
A: The Minimum inhibitory concentration was “(10.8) μM”.

Q: And the Minimum inhibitory concentration [4]?
A: Its Minimum inhibitory concentration is “(21.7) μM”.

Q: And the Minimum inhibitory concentration [5]?
A: The Minimum inhibitory concentration was “(10.8) μM”.

Q: And the Minimum inhibitory concentration [6]?
A: The Minimum inhibitory concentration was “(5.4) μM”.

Q: And the “Minimum biofilm eradication concentration (reduction of resazurin ≤10% ± 0.5%)” value [7, 14]?
A: The value was 64 µg/mL.

Q: And the “Minimum biofilm eradication concentration (reduction of resazurin ≤10% ± 0.5%)” value [7, 15]?
A: Its value is “(86.6) μM”.

Q: And the “Minimum biofilm eradication concentration (reduction of resazurin ≤10% ± 0.5%)” value [7, 16]?
A: The value was 64 µg/mL.

Q: And the “Minimum biofilm eradication concentration (reduction of resazurin ≤10% ± 0.5%)” value [7, 17]?
A: Its value is “(86.6) μM”.

Q: What about the “Minimum biofilm eradication concentration (reduction of resazurin ≤10% ± 0.5%)” value [8, 14] of the same compound?
A: Its value is 32 µg/mL.

Q: What about the “Minimum biofilm eradication concentration (reduction of resazurin ≤10% ± 0.5%)” value [8, 15] of the same compound?
A: The value was “(43.3) μM”.

Q: And the “Minimum biofilm eradication concentration (reduction of resazurin ≤10% ± 0.5%)” value [8, 16]?
A: Its value is 64 µg/mL.

Q: What about the “Minimum biofilm eradication concentration (reduction of resazurin ≤10% ± 0.5%)” value [8, 17] of the same compound?
A: The value was “(86.6) μM”.

Q: And the “Minimum biofilm eradication concentration (reduction of resazurin ≤10% ± 0.5%)” value [9, 14]?
A: The value was 32 µg/mL.

Q: What about the “Minimum biofilm eradication concentration (reduction of resazurin ≤10% ± 0.5%)” value [9, 15] of the same compound?
A: The value was “(43.3) μM”.

Q: What about the “Minimum biofilm eradication concentration (reduction of resazurin ≤10% ± 0.5%)” value [9, 16] of the same compound?
A: Its value is 512 µg/mL.

Q: What about the “Minimum biofilm eradication concentration (reduction of resazurin ≤10% ± 0.5%)” value [9, 17] of the same compound?
A: The value was “(693.0) μM”.

Q: What about the “Minimum biofilm eradication concentration (reduction of resazurin ≤10% ± 0.5%)” value [10, 14] of the same compound?
A: Its value is 32 µg/mL.

Q: And the “Minimum biofilm eradication concentration (reduction of resazurin ≤10% ± 0.5%)” value [10, 15]?
A: The value was “(43.3) μM”.

Q: What about the “Minimum biofilm eradication concentration (reduction of resazurin ≤10% ± 0.5%)” value [10, 16] of the same compound?
A: Its value is 32 µg/mL.

Q: And the “Minimum biofilm eradication concentration (reduction of resazurin ≤10% ± 0.5%)” value [10, 17]?
A: Its value is “(43.3) μM”.

Q: What about the “Concentrations eradicating biofilms formed by Gram-positive bacteria (MBEC)” value ([11]; at 37 °C) of the same compound?
A: The value was 32 to 512 µg/mL.

Q: And the “Concentrations eradicating biofilms formed by Gram-positive bacteria (MBEC)” value ([11]; printed "below 25 °C")?
A: Its value is 32 to 64 µg/mL.

Q: What about the “Minimum biofilm eradication concentration (reduction of resazurin ≤10% ± 0.5%)” value [12, 14] of the same compound?
A: Its value is greater than 512 µg/mL.

Q: And the “Minimum biofilm eradication concentration (reduction of resazurin ≤10% ± 0.5%)” value [12, 15]?
A: The value was “(>693.0) μM”.

Q: What about the “Minimum biofilm eradication concentration (reduction of resazurin ≤10% ± 0.5%)” value [12, 16] of the same compound?
A: Its value is greater than 512 µg/mL.

Q: And the “Minimum biofilm eradication concentration (reduction of resazurin ≤10% ± 0.5%)” value [12, 17]?
A: The value was “(>693.0) μM”.

Q: And the “Concentration eradicating E. coli biofilms (MBEC)” value ([13]; ATCC 25922, 24 h)?
A: Its value is 256 µg/mL.

Q: What about the “Minimum biofilm eradication concentration (reduction of resazurin ≤10% ± 0.5%)” value [13, 14] of the same compound?
A: The value was 256 µg/mL.

Q: What about the “Minimum biofilm eradication concentration (reduction of resazurin ≤10% ± 0.5%)” value [13, 15] of the same compound?
A: Its value is “(346.5) μM”.

Q: What about the “Minimum biofilm eradication concentration (reduction of resazurin ≤10% ± 0.5%)” value [13, 16] of the same compound?
A: The value was 256 µg/mL.

Q: And the “Minimum biofilm eradication concentration (reduction of resazurin ≤10% ± 0.5%)” value [13, 17]?
A: The value was “(346.5) μM”.
